One compound from patent US20260166182A1, “CYANINE-BASED FLUOROPHORES” (The General Hospital Corporation, priority 2022, published 2026) can be followed below.

Type in all cases: in vivo, mouse
In assay [1] the test system is immune cells from bone marrow and tumor tissues. Kind of assay: Flow cytometry analysis of fluorophore-targeted immune cells from bone marrow and tumor. The protocol: Flow cytometry analysis: Bone marrow tissue was mechanically dissociated and digested with collagenase D (175 unit/mL, Roche) and DNase I (100 unit/mL, Roche) followed by EDTA (2 mM, Invitrogen). Erythrocytes were removed using RBC Lysis Buffer (Invitrogen). Tumor tissue was mechanically dissociated and digested with collagenase I (175 unit/mL, Thermo-fisher), Collagenase IV (250 unit/mL, Thermo-fisher, 1700019), and DNase I (100 unit/mL) followed by EDTA ([…]). Immune cells were isolated from cell suspensions of the bone marrow or tumor tissue using Ficoll® Paque Plus (GE Healthcare). Isolated cells were stained with anti-mouse F4/80 (BM8, Biolegend, 123131), anti-mouse Ly-6G (1A8, Biolegend, 127639), anti-mouse Ly-6C(HK1.4, Biolegend, 128011), anti-mouse CD11c (N418, Biolegend, 117313), anti-mouse CD103 (2E7, Biolegend, 121425), anti-mouse I-A/I-E (M5/114.15.2 Biolegend, 107611), anti-mouse/human CD11b (M1/70, Biolegend, 101254) and anti-mouse CD45 antibodies (30-F11, Biolegend, 103105) conjugated to fluorophores. Isolated cells were stained with Live/dead®-Aqua (Life Technologies) to distinguish live cells. Stained cells were fixed using 1% paraformaldehyde prior to analysis. Data acquisition was performed on a Fortessa cytometer (BD) followed by analysis on FlowJo software (Tree Star).
For orientation: A flow cytometer gives signals particle by particle.

In assay [2] the test system is lung carcinoma (LLC cell line). The assay is described as follows: NIR-II fluorescence imaging of subcutaneous LLC tumor-bearing C57BL/6 mice. From the text:
General NIR-II fluorescence imaging: A 640×512-pixel InGaAs camera (Ninox640, Raptor Photonics) and macro zoom lens (0-10×; Navitar Zoom 7000 with SWIR coating) along with 900, 1070, 1100, and 1200 nm long-pass (LP) filters from either Thorlab or Edmund optics were used to collect the NIR-II signal. InGaAs camera played a role as an open-air imaging system along with the support of the FLARE system. An 808 nm fiber-coupled diode laser ([…] at the sample) was used as an excitation source. Data acquisition was done using in-house developed software. […] Mice were imaged with intact skin using InGaAs camera. At least 3 mice were analyzed for each sample. Tumor-bearing mouse models: Animals were housed in an AAALAC-certified facility and were studied under the protocols approved by the MGH IACUC (2016N000136). Mice were maintained under anesthesia with isoflurane and oxygen during the experiment. To establish the various tumor-bearing mouse models including lung carcinoma, pancreatic ductal adenocarcinoma (PDAC), and triple negative breast adenocarcinoma, eight-week-old C57BL/6 mice (Taconic Farms, Germantown, NY) were subcutaneously injected with 2×10^5 LLC, Pan02, and E0771 cells suspended in DMEM/Matrigel (100 μL, 50 v/v %) in the flank region, respectively. Female C57BL/6 mice were used for the breast cancer (E0771) model, otherwise male mice were used. […] Statistical analysis: The fluorescence and background intensities of a region of interest over each tissue were quantified using customized imaging software and ImageJ v1.48 (National Institutes of Health, Bethesda, MD). The signal-to-background ratio (SBR) was calculated as SBR=fluorescence/background, where background was the fluorescence intensity of muscle. Data were reported as mean±s.e.m. with a minimum of three biological replicates. Student's t-test statistical analysis was performed to evaluate the significance of the experimental data. The differences among groups were determined using one-way ANOVA analysis to assess the statistical differences among more than two groups. […] The data was indicated with *p<0.05, ** p<0.01, *** p<0.001, and **** p<0.0001.

In a further assay the test system is LLC tumor. The assay is described as follows: Quantitative 3D FLECT/CT tumor accumulation. Particulars: from 24 h to 48 h post-injection. Here is the method: Quantitative analysis using InSyTe FLECT/CT: 3D fluorescence images were acquired with the TriFoil Imaging InSyTe FLECT/CT, a commercial preclinical imaging system with full 3D fluorescence tomography imaging capability and an inline CT system. Animals were anesthetized with isoflurane during scans. FLECT scans were performed with 116 projections per slice, 780 nm laser for excitation, and 853/45 bandpass fluorescence emission filter. After data collection, fluorescence images were reconstructed using a proprietary FLECT reconstruction engine. CT scans were performed with 360 projections per slice, 35 kV tube voltage, 950 uA tube current, and 100 ms exposure. CT images were reconstructed using the COBRA filtered back-projection algorithm (Exxim, Computing Corporation, Pleasanton, CA). Quantitative analysis of 3D fluorescence images was performed using the VivoQuant 2020 image analysis software (Invicro, Boston, MA). FLECT and CT images were co-registered in VivoQuant 2020. Volumes-of-interest (VOI) were segmented via intensity thresholding, where the threshold limits were set to the local full-width-half-maximum (FWHM) intensity value for the lower threshold bound and local maximum intensity value for the upper threshold bound.

As to `CCCCN1/C(=C/C=C2\CCCC(/C=C/C3=[N+](CCCC)c4ccc(Cl)cc4C3(C)C)=C2Cl)C(C)(C)c2cc(Cl)ccc21` [SH1, 1-butyl-2-((E)-2-((E)-3-(2-((E)-1-butyl-5-chloro-3,3-dimethylindolin-2-ylidene)ethylidene)-2-chlorocyclohex-1-en-1-yl)vinyl)-5-chloro-3,3-dimethyl-3H-indol-1-ium], the “targeted tumor-associated immune cells” value is reported as 45.4% in assay [1] (CD11b+ DCs); 23.8% in assay [1] (CD103+ DCs); 48.6% in assay [1] (Ly6C^high monocyte); 43.1% in assay [1] (Ly6C^low monocyte); 45.7% in assay [1] (Macrophage). Besides, the “cells identified as targeted TAICs in the tumor region” value in assay [1] (tumor) is “macrophages, Ly6C^low monocytes, and dendritic cells”. Further, in assay [2] (intravenous, NIR-II imaging until 48 h post-injection), the “tumor targeting / tumor signal” value is recorded as “superb signal intensity in tumor area”. Also, in assay [2] (larger-sized lung tumors), the TBR came out at 23.7. Moreover, in the assay on LLC tumor, the “increase of % ID in cancer area” value is “more than 2 fold”.
